Data: patent US9670227B2, “Thienopyrimidine derivatives, a process for their preparation and pharmaceutical compositions containing them” (LES LABORATOIRES SERVIER, priority 2013, dated 2017)

How the values were obtained:
[1] = test system: AMO-1 multiple myeloma cells; assay: Quantification of the cleaved form of PARP in vivo (MSD ELISA, tumour lysates); parameters: species or system mice (SCID strain); conditions: activation factor: cleaved PARP in treated mice / control mice, AMO-1 xenograft in SCID mice, intraveinous or oral routes
Protocol: The ability of the compounds of the invention to induce apoptosis, by measuring cleaved PARP levels, is evaluated in a xenograft model of AMO-1 multiple myeloma cells. 1.10^7 AMO-1 cells are grafted sub-cutaneously into immunosuppressed mice (SCID strain). 12 to 14 days after the graft, the animals are treated by intraveinous or oral routes with the various compounds. After treatment, the tumour masses are recovered and lysed, and the cleaved form of PARP is quantified in the tumour lysates.
The quantification is carried out using the “Meso Scale Discovery (MSD) ELISA platform” test, which specifically assays the cleaved form of PARP. It is expressed in the form of an activation factor corresponding to the ratio between the quantity of cleaved PARP in the treated mice divided by the quantity of cleaved PARP in the control mice.

Mcl-1 protein = Mcl-1 protein (UniProtKB primary accession number: Q07820) (Homo sapiens, UniProt Q07820); assay: Inhibition of Mcl-1 by fluorescence polarisation, Method 1; type: binding; conditions: fluorescence polarisation test; Method 2 values are underlined in the patent (underlining not visible here); read-out: IC50 (M) Mcl-1 FP
Method in brief: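 Binding was measured as fluorescence polarisation of a fluorescein-labelled ligand (1 nM) displaced from Mcl-1 (5 nM), both final. Compounds ran as 11-point series with final DMSO at 5%.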

[2] = test system: H929 multiple myeloma tumour line; assay: In vitro cytotoxicity, Microculture Tetrazolium Assay; type: cell-based; conditions: Homo sapiens, NCI-H929, 48 h, H929 cells, 48 hours exposure, MTT; read-out: IC50 (μM) MTT H929
Protocol: The cytotoxicity studies were carried out on the H929 multiple myeloma tumour line.
The cells are distributed onto microplates and exposed to the test compounds for 48 hours.

Mcl-1 protein, sequence (Q07820 whole entry): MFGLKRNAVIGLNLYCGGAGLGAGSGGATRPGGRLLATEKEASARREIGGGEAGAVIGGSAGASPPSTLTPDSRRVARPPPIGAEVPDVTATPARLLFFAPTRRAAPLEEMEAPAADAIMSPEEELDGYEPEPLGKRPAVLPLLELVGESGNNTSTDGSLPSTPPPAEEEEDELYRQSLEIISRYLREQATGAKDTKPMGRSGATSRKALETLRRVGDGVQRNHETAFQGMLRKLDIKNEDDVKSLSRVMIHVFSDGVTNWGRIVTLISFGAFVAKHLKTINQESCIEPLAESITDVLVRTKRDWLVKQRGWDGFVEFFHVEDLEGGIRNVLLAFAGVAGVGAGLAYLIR

Row | IC50 (Mcl-1 protein) [M] | Compound | PARP fold [1] [fold] | IC50 [2] [µM]
1 | 4e-09 | Cc1c(-c2c(-c3ccc(F)cc3)sc3ncnc(OC(Cc4ccccc4OCc4ccnc(OCC(F)(F)F)n4)C(=O)O)c23)ccc(OCCN2CCN(C)CC2)c1Cl [Example 58, (2R)-2-{[(5Sa)-5-{3-chloro-2-methyl-4-[2-(4-methylpiperazin-1-yl)ethoxy]phenyl}-6-(4-fluorophenyl)thieno[2,3-d]pyrimidin-4-yl]oxy}-3-(2-{[2-(2,2,2-trifluoroethoxy)pyrimidin-4-yl]methoxy}phenyl)propanoic acid] | 181.9 | 0.01
2 | 3.9e-09 | Cc1c(-c2c(-c3ccc(F)cc3)sc3ncnc(OC(Cc4ccccc4OCc4ccnc(OCCC(F)(F)F)n4)C(=O)O)c23)ccc(OCCN2CCN(C)CC2)c1Cl [Example 62, (2R)-2-{[(5Sa)-5-{3-chloro-2-methyl-4-[2-(4-methylpiperazin-1-yl)ethoxy]phenyl}-6-(4-fluorophenyl)thieno[2,3-d]pyrimidin-4-yl]oxy}-3-(2-{[2-(3,3,3-trifluoropropoxy)pyrimidin-4-yl]methoxy}phenyl)propanoic acid] | 391.6 | 0.008
3 | 4.5e-09 | COCCOc1nccc(COc2ccccc2CC(Oc2ncnc3sc(-c4ccc(F)cc4)c(-c4ccc(OCCN5CCN(C)CC5)c(Cl)c4C)c23)C(=O)O)n1 [Example 63, (2R)-2-{[(5Sa)-5-{3-chloro-2-methyl-4-[2-(4-methylpiperazin-1-yl)ethoxy]phenyl}-6-(4-fluorophenyl)thieno[2,3-d]pyrimidin-4-yl]oxy}-3-(2-{[2-(2-methoxyethoxy)pyrimidin-4-yl]methoxy}phenyl)propanoic acid] | 177.8 | 0.009
4 | 4.2e-09 | CCCCn1nncc1COc1ccccc1CC(Oc1ncnc2sc(-c3ccc(F)cc3)c(-c3ccc(OCCN4CCN(C)CC4)c(Cl)c3C)c12)C(=O)O [Example 95, (2R)-3-{2-[(1-butyl-1H-1,2,3-triazol-5-yl)methoxy]phenyl}-2-{[(5Sa)-5-{3-chloro-2-methyl-4-[2-(4-methylpiperazin-1-yl)ethoxy]phenyl}-6-(4-fluorophenyl)thieno[2,3-d]pyrimidin-4-yl]oxy}propanoic acid] | 156.8 | 0.022
5 | 2.1e-09 | Cc1c(-c2c(-c3ccc(F)cc3)sc3ncnc(OC(Cc4ccccc4OCc4ccnc(-c5ccccc5F)n4)C(=O)O)c23)ccc(OCCN2CCN(C)CC2)c1Cl [Example 114, (2R)-2-{[(5Sa)-5-{3-chloro-2-methyl-4-[2-(4-methylpiperazin-1-yl)ethoxy]phenyl}-6-(4-fluorophenyl)thieno[2,3-d]pyrimidin-4-yl]oxy}-3-(2-{[2-(2-fluorophenyl)pyrimidin-4-yl]methoxy}phenyl)propanoic acid] | 158.2 | 0.005
6 | 5.5e-09 | Cc1cc(-c2nccc(COc3ccccc3CC(Oc3ncnc4sc(-c5ccc(F)cc5)c(-c5ccc(OCCN6CCN(C)CC6)c(Cl)c5C)c34)C(=O)O)n2)ccn1 [Example 118, (2R)-2-{[(5Sa)-5-{3-chloro-2-methyl-4-[2-(4-methylpiperazin-1-yl)ethoxy]phenyl}-6-(4-fluorophenyl)thieno[2,3-d]pyrimidin-4-yl]oxy}-3-(2-{[2-(2-methylpyridin-4-yl)pyrimidin-4-yl]methoxy}phenyl)propanoic acid] | 159.8 | 0.006
7 | 8.9e-09 | Cc1ccncc1-c1nccc(COc2ccccc2CC(Oc2ncnc3sc(-c4ccc(F)cc4)c(-c4ccc(OCCN(C)C)c(Cl)c4C)c23)C(=O)O)n1 [Example 138, (2R)-2-{[(5Sa)-5-{3-chloro-4-[2-(dimethylamino)ethoxy]-2-methylphenyl}-6-(4-fluorophenyl)thieno[2,3-d]pyrimidin-4-yl]oxy}-3-(2-{[2-(4-methylpyridin-3-yl)pyrimidin-4-yl]methoxy}phenyl)propanoic acid] | 333.9 | 0.013
8 | 4.6e-09 | Cc1c(-c2c(-c3ccc(F)o3)sc3ncnc(OC(Cc4ccccc4OCc4ccnc(C(F)(F)F)c4)C(=O)O)c23)ccc(OCCN2CCN(C)CC2)c1Cl [Example 167, (2R)-2-{[(5Sa)-5-{3-chloro-2-methyl-4-[2-(4-methylpiperazin-1-yl)ethoxy]phenyl}-6-(5-fluorofuran-2-yl)thieno[2,3-d]pyrimidin-4-yl]oxy}-3-(2-{[2-(trifluoromethyl)pyridin-4-yl]methoxy}phenyl)propanoic acid] | 230.1 | 0.01
9 | 2.8e-09 | COc1cc(COc2ccccc2CC(Oc2ncnc3sc(-c4ccc(F)o4)c(-c4ccc(OCCN5CCN(C)CC5)c(Cl)c4C)c23)C(=O)O)ccn1 [Example 168, (2R)-2-{[(5Sa)-5-{3-chloro-2-methyl-4-[2-(4-methylpiperazin-1-yl)ethoxy]phenyl}-6-(5-fluorofuran-2-yl)thieno[2,3-d]pyrimidin-4-yl]oxy}-3-{2-[(2-methoxypyridin-4-yl)methoxy]phenyl}propanoic acid] | 179.2 | 0.025
10 | 5.3e-09 | Cc1c(-c2c(-c3ccc(F)o3)sc3ncnc(OC(Cc4ccccc4OCc4ccnc(C5CC5)n4)C(=O)O)c23)ccc(OCCN2CCN(C)CC2)c1Cl [Example 170, (2R)-2-{[(5Sa)-5-{3-chloro-2-methyl-4-[2-(4-methylpiperazin-1-yl)ethoxy]phenyl}-6-(5-fluorofuran-2-yl)thieno[2,3-d]pyrimidin-4-yl]oxy}-3-{2-[(2-cyclopropylpyrimidin-4-yl)methoxy]phenyl}propanoic acid] | 144 | 0.006
11 | 4.1e-09 | Cc1c(-c2c(-c3ccc(F)o3)sc3ncnc(OC(Cc4ccccc4OCc4ccnc(-c5cccs5)n4)C(=O)O)c23)ccc(OCCN2CCN(C)CC2)c1Cl [Example 171, (2R)-2-{[(5Sa)-5-{3-chloro-2-methyl-4-[2-(4-methylpiperazin-1-yl)ethoxy]phenyl}-6-(5-fluorofuran-2-yl)thieno[2,3-d]pyrimidin-4-yl]oxy}-3-(2-{[2-(thiophen-2-yl)pyrimidin-4-yl]methoxy}phenyl)propanoic acid] | 207.4 | 0.003
12 | 2.8e-09 | CCOc1nccc(COc2ccccc2CC(Oc2ncnc3sc(-c4ccc(F)o4)c(-c4ccc(OCCN5CCN(C)CC5)c(Cl)c4C)c23)C(=O)O)n1 [Example 177, (2R)-2-{[(5Sa)-5-{3-chloro-2-methyl-4-[2-(4-methylpiperazin-1-yl)ethoxy]phenyl}-6-(5-fluorofuran-2-yl)thieno[2,3-d]pyrimidin-4-yl]oxy}-3-{2-[(2-ethoxypyrimidin-4-yl)methoxy]phenyl}propanoic acid] | 233.8 | 0.005
13 | 7.7e-09 | Cc1cnccc1-c1nccc(COc2ccccc2CC(Oc2ncnc3sc(-c4ccc(F)o4)c(-c4ccc(OCCN5CCN(C)CC5)c(Cl)c4C)c23)C(=O)O)n1 [Example 198, (2R)-2-{[(5Sa)-5-{3-chloro-2-methyl-4-[2-(4-methylpiperazin-1-yl)ethoxy]phenyl}-6-(5-fluorofuran-2-yl)thieno[2,3-d]pyrimidin-4-yl]oxy}-3-(2-{[2-(3-methylpyridin-4-yl)pyrimidin-4-yl]methoxy}phenyl)propanoic acid] | 280 | 0.002
14 | 3.5e-09 | Cc1c(-c2c(-c3ccc(F)o3)sc3ncnc(OC(Cc4ccccc4OCc4ccnc(N5CCOCC5)n4)C(=O)O)c23)ccc(OCCN(C)C)c1Cl [Example 202, (2R)-2-{[(5Sa)-5-{3-chloro-4-[2-(dimethylamino)ethoxy]-2-methylphenyl}-6-(5-fluorofuran-2-yl)thieno[2,3-d]pyrimidin-4-yl]oxy}-3-(2-{[2-(morpholin-4-yl)pyrimidin-4-yl]methoxy}phenyl)propanoic acid] | 153.8 | 0.009
15 | 4.8e-09 | Cc1c(-c2c(-c3ccco3)sc3ncnc(OC(Cc4ccccc4OCc4ccnc(OCC5CC5)n4)C(=O)O)c23)ccc(OCCN2CCN(C)CC2)c1Cl [Example 256, (2R)-2-{[(5Sa)-5-{3-chloro-2-methyl-4-[2-(4-methylpiperazin-1-yl)ethoxy]phenyl}-6-(furan-2-yl)thieno[2,3-d]pyrimidin-4-yl]oxy}-3-(2-{[2-(cyclopropylmethoxy)pyrimidin-4-yl]methoxy}phenyl)propanoic acid] | 125.1 | 0.006
16 | 5.8e-09 | COCCOc1ccccc1CC(Oc1ncnc2sc(-c3ccco3)c(-c3ccc(OCCN4CCN(C)CC4)c(Cl)c3C)c12)C(=O)O [Example 290, (2R)-2-{[(5Sa)-5-{3-chloro-2-methyl-4-[2-(4-methylpiperazin-1-yl)ethoxy]phenyl}-6-(furan-2-yl)thieno[2,3-d]pyrimidin-4-yl]oxy}-3-[2-(2-methoxyethoxy)phenyl]propanoic acid] | 121 | 0.097
